Bridge positions count the residues as written; N and C are the ends. Peptide text beside a SMILES is read from it.
Key:
[1] = molecular target: T1, Escherichia coli σ^70 RNAP holoenzyme (Escherichia coli, UniProt P0A8T7); experiment: fluorescence-detected abortive initiation assay; type: biochemical; details: lacUV5-12 DNA fragment, 37° C.
T1 construct: purchased Epicentre, Inc
Experimental: (§1) Following incubation of reaction mixtures for 5 min at 22° C., 1 μl 1.1 μM DNA fragment lacUV5-12 (Mukhopadhyay et al. (2001) Cell 106, 453-463) was added. Following further incubation of reaction mixtures for […] at 37° C., 0.5 μl 1 mg/ml heparin (Sigma, Inc.; omitted in experiments with T. thermophilus RNAP) and 0.5 μl of 2.75 mM (γ-AmNS)UTP (Molecular Probes, Inc.) were added, and reaction mixtures were transferred to sub-micro fluorometer cuvettes (Starna Cells, Inc.). Following further incubation of reaction mixtures for 2 min at 37° C., RNA synthesis was initiated by addition of 2 μl 11 mM ApA (Sigma, Inc.), and fluorescence emission intensity was monitored for 5 min at 37° C. [excitation wavelength=360 nm and emission wavelength=500 nm; excitation and emission slit widths=4 nm; QuantaMaster QM1 spectrofluorometer (PTI, Inc.)]. The quantity of UMP incorporated into RNA was determined from the quantity of (γ-AmNS) UTP consumed, which, in turn, was calculated as follows (Schlageck et al. 1979): (γ-AmNS)UTPconsumed=[(γ-AmNS)UTP0](Ft−F0)/(12.4×F0) where (γ-AmNS)UTP0 is the quantity of (γ-AmNS)UTP at time 0, F0 is the fluorescence emission intensity at time 0, and Ft is the fluorescence emission intensity at time t.

[2] = molecular target: T2, Thermus thermophilus σ^A RNAP holoenzyme (Thermus thermophilus, UniProt Q8RQE8); experiment: fluorescence-detected abortive initiation assay; type: biochemical; details: lacUV5-12 DNA fragment, 37° C.
T2 construct: made in house
Experimental: as §1

[3] = system: Thermus-Deinoccoccus bacterial RNAP; details: Yuzenkova, et al. (2002); cited from earlier work
[4] = tested thermal and chemical denaturants; cited from earlier work
[5] = system: Gram-positive bacterial RNAP; details: Yuzenkova, et al. (2002); cited from earlier work
[6] = system: mesophilic endo- and exopeptidease; details: tested mesophilic endo- and exopeptidases; cited from earlier work

T1 sequence (P00579 whole entry, the tested form may be a part): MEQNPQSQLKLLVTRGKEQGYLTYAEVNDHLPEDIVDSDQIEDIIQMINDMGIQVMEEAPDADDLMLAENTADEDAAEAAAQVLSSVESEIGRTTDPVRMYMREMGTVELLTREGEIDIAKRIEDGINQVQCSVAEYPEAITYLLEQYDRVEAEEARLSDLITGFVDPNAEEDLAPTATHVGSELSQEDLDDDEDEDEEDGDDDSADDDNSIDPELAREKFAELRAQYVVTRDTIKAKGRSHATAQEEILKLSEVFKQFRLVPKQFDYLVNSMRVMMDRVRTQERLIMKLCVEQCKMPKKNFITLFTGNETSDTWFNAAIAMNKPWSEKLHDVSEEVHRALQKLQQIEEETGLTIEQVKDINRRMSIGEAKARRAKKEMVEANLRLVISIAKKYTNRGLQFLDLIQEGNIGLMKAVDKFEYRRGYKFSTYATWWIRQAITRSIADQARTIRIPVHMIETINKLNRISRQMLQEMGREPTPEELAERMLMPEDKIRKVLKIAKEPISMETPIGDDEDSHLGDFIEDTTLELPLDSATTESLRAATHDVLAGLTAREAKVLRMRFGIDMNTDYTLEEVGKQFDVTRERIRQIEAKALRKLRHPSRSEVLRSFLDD
T1 sequence (P0A8T7 whole entry, the tested form may be a part): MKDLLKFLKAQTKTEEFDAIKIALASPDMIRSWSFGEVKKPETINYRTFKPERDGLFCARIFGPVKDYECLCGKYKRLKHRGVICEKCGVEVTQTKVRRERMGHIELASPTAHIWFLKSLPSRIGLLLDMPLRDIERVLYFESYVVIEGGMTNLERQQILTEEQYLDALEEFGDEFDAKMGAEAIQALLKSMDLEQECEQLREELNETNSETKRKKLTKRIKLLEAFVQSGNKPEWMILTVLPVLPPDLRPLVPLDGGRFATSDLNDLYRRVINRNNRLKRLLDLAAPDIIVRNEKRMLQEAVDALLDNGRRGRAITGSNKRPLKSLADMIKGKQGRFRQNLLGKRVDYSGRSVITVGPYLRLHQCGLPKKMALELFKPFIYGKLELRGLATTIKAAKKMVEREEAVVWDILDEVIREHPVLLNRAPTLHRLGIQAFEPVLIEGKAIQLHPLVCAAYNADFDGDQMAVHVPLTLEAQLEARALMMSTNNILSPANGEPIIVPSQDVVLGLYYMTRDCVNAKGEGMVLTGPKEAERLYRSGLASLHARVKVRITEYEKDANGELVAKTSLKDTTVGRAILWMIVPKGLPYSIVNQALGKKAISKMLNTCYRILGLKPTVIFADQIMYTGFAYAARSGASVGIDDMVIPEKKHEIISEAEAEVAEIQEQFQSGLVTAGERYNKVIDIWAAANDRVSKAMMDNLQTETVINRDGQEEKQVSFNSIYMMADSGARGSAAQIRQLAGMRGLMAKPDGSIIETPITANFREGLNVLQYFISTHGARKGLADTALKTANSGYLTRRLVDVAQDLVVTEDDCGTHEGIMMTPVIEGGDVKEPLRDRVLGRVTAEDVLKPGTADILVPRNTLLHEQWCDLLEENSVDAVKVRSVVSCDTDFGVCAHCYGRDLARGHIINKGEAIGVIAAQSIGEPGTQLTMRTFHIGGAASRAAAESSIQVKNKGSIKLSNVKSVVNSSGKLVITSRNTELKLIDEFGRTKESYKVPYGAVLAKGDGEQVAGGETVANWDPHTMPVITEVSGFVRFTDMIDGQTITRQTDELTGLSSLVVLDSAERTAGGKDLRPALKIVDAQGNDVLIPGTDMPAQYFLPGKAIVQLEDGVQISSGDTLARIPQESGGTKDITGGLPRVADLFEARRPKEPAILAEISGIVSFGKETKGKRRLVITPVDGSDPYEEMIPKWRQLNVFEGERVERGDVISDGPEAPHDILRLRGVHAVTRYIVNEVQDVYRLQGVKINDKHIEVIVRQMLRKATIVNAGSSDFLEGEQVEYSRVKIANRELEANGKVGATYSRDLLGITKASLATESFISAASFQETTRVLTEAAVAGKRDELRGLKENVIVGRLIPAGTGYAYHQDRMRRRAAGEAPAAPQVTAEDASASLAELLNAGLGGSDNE
T1 sequence (P0A8V2 whole entry, further chain, the tested form may be a part): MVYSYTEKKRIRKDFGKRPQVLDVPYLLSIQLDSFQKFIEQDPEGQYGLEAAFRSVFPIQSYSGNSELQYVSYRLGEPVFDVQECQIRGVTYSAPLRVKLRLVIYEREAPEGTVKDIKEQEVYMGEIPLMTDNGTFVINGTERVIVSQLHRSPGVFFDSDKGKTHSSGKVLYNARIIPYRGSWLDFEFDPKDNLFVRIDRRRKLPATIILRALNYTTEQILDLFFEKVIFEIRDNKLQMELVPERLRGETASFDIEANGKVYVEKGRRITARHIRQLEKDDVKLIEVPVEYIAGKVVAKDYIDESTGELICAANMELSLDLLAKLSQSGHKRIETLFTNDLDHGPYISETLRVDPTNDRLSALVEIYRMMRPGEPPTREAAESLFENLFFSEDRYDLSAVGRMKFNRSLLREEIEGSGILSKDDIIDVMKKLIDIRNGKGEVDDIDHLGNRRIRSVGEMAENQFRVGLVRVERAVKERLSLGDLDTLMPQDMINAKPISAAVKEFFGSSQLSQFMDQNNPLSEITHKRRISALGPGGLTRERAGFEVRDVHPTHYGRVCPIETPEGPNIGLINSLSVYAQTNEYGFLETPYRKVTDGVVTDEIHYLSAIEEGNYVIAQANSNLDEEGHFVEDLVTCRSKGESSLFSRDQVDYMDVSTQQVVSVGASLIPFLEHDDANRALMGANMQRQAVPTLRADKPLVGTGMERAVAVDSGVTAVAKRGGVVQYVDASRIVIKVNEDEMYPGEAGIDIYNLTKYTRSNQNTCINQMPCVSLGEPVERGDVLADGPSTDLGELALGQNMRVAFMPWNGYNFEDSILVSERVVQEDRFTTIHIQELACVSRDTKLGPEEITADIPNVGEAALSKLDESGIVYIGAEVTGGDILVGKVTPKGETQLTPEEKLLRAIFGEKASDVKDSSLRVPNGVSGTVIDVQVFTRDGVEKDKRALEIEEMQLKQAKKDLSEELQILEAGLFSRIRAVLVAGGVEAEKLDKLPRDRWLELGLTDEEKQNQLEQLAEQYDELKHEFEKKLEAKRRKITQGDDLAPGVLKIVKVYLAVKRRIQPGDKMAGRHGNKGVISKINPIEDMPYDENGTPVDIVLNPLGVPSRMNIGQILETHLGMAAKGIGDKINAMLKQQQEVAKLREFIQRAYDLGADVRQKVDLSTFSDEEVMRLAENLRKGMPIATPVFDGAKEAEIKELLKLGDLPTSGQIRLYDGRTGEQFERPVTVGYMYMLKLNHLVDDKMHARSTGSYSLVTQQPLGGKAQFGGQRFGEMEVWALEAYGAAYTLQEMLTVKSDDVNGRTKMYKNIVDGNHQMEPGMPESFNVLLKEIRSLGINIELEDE
T1 sequence (P0A800 whole entry, further chain, the tested form may be a part): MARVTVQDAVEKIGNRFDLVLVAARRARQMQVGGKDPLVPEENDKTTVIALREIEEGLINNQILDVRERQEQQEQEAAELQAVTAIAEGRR
T1 sequence (P0A7Z4 whole entry, further chain, the tested form may be a part): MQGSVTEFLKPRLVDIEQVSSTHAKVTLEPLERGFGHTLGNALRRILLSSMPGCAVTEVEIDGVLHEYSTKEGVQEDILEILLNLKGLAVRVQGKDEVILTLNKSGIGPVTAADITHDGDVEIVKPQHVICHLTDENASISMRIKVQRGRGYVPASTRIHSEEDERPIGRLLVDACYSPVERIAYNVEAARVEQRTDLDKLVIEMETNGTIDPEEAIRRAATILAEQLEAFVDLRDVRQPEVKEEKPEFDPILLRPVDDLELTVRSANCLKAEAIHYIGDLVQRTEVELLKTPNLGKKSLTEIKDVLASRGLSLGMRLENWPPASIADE

Row | Compound | IC50 [1] | IC50 [2] | inhibition of Thermus-Deinoccoccus bacterial RNAP [3] | resistance to denaturation [4] | inhibition of Gram-positive bacterial RNAP [5] | resistance to proteolysis [6]
1 | C[C@@H](O)[C@@H]1NC(=O)CNC(=O)[C@H](Cc2c[nH]cn2)NC(=O)[C@H](Cc2c[nH]c3ccccc23)NC(=O)[C@H](CC(N)=O)NC(=O)CNC(=O)C[C@@H](C(=O)N[C@@H](Cc2c[nH]c3ccccc23)C(=O)N[C@@H](Cc2ccccc2)C(=O)N[C@@H](Cc2ccccc2)C(=O)N[C@@H](CC(N)=O)C(=O)N[C@@H](Cc2ccc(O)cc2)C(=O)N[C@@H](Cc2ccc(O)cc2)C(=O)N[C@@H](Cc2c[nH]c3ccccc23)C(=O)O)NC(=O)[C@@H]2CCCN2C(=O)[C@H](CO)NC1=O [RES-701-3] (GNWHGTSPDWFFNYYW-OH; lactam N-9; C-terminus assumed) | 20 µM | 2 µM |  |  |  | 
2 | CC[C@H](C)[C@H](NC(=O)[C@H](Cc1ccccc1)NC(=O)[C@@H](NC(=O)[C@H](Cc1cnc[nH]1)NC(=O)CNC(=O)CNC(=O)[C@H](Cc1ccccc1)NC(=O)[C@H](CC(C)C)NC(=O)[C@@H]1CC(=O)NCC(=O)N[C@@H](Cc2ccc(O)cc2)C(=O)N2CCC[C@H]2C(=O)N[C@@H](Cc2c[nH]c3ccccc23)C(=O)N[C@@H](Cc2c[nH]c3ccccc23)C(=O)N[C@@H](CC(=O)O)C(=O)N[C@@H](Cc2ccc(O)cc2)C(=O)N[C@@H](CCCNC(=N)N)C(=O)N1)[C@@H](C)O)C(=O)N[C@@H](CO)C(=O)N1CCC[C@H]1C(=O)O [propeptin] (GYPWWDYRDLFGGHTFISP-OH; lactam N-9) | 30 µM | 5 µM |  |  |  | 
3 | Gly1-Gly2-Ala3-Gly4-His5-Pro6-Val7-Glu8-Tyr9-Phe10-Val11-Gly12-Ile13-Gly14-Thr15-Pro16-Ile17-Ser18-Phe19-Tyr20-Gly21 cyclic(8→1) peptide [MccJ25] |  |  | does not inhibit | complete resistance to tested thermal and chemical denaturants | does not inhibit | complete resistance to tested mesophilic endo- and exopeptidease
